According to patent US8647673B2, “Nanoparticles for imaging and treating chlamydial infection” (Wayne State University, priority 2007, dated 2014):
Converted amounts (≈) assume the structure as drawn. Read-outs that look alike come from different tables or passages of the source.

Test system: C. trachomatis (serovar K)
Test: Microsusceptibility: chlamydial inclusion counts in infected McCoy cells
Format: cell-based
Settings: for change in MIC50 with length of treatment: 24 vs 48 hrs incubation, treated immediately following infection; for MIC50: Chlamydia trachomatis; for sensitivity (decrease in inclusion number with increasing dose): drug added 24 or 48 hours post infection, 24 hours in presence of drug
Protocol: FIG. 19. […] McCoy cells were infected with C trachomatis serovar K at MOI=1. […] Drugs were administered either encapsulated in nanoparticles (top panel) or dissolved in growth medium (bottom panel). Chlamydial viability was determined by counting the number of inclusions/well.
Cells and growth of Chlamydia. McCoy cells were seeded onto 96-well microtitre plates at a concentration of 2×10^5 cells per well and allowed to adhere overnight at 37° C. and 5% CO2 in Eagles MEM supplemented with 10% FBS and […] Glutamine. The following day, the cells were inoculated with C. trachomatis (UW-31, serovar K) at 10^4 IFU/well and centrifuged at 2500 rpm for 1 hr at room temperature, followed by incubation at 37° C. for 1 hr. The inoculum was then aspirated and replaced with the appropriate two fold dilution of free drug or encapsulated nanoparticles prepared in antibiotic-free growth media containing 0.06% glucose and 1 μg/ml cyclohexamide. The cells were incubated in the presence of drug for 24 or 48 hrs post infection and then fixed with 100% MeOH. Chlamydial inclusions were detected by immunofluorescence using BioRad Pathfinder® according to the manufacturer's instructions and the plates subsequently stored protected from light at 4° C.
McCoy cells were seeded onto 96-well microtiter plates and then infected the next day with 10^4 IFU/well C. trachomatis (serovar K).
McCoy cells were seeded onto 96-well microtiter plates and then infected the next day with 10^4 IFU/well C. trachomatis (serovar K). […] The mean inclusion number was plotted as a function of concentration.
McCoy cells (2×10^5/well) were seeded onto 96-well microtitre plates and then infected the next day with 10^4 IFU/well C. trachomatis (serovar K). […] The cells were incubated for 24 hours in the presence of drug and then fixed. Based on previous experiments we refined the concentrations ranges for each of the two free drugs and encapsulated nanoparticles.
McCoy cells (2×10^5/well) were seeded onto 96-well microtitre plates and then infected the next day with 10^4 IFU/well C. trachomatis (serovar K). […] The cells were incubated for 24 hours in the presence of drug and then fixed. […] We, therefore, extended the concentration ranges for the two drugs.
McCoy cells (2×10^5/well) were seeded onto 96-well microtitre plates and then infected the next day with 10^4 IFU/well C. trachomatis (serovar K). […] The cells were incubated for 24 hours or 48 hours in the presence of drug and then fixed.
Free and nanoparticle-encapsulated antibiotics added at either t0 (time of infection) or after 24 hr of infection (t24), were compared along with blank nanoparticles as controls.

[1] = 24 h, added immediately following infection, 24 hours in the presence of drug (Example 9), read-out: MIC50
[2] = treated individually, MOI=1, drug added at overlay, nanoparticles not conjugated to folic acid (Example 16), read-out: MIC50

Structure (SMILES)	change in MIC50 with length of treatment	MIC50 [1] [µg/mL]	MIC50 (in the presence of 0.004 μg/ml rifampin (Example 16), read-out: MIC50 of azithromycin) [µg/mL]	MIC50 [2] [µg/mL]	sensitivity (decrease in inclusion number with increasing dose)	MIC50 (24 h, drug added at 24 hpi and left on for 24 hours, read-out: MIC50) [µg/mL]	MIC50 (read-out: MIC50 of rifampin, in the presence of 0.016 μg/ml azithromycin (Example 16)) [µg/mL]
CC[C@H]1OC(=O)[C@H](C)[C@@H](O[C@H]2C[C@@](C)(OC)[C@@H](O)[C@H](C)O2)[C@H](C)[C@@H](O[C@@H]2O[C@H](C)C[C@H](N(C)C)[C@H]2O)[C@](C)(O)C[C@@H](C)CN(C)[C@H](C)[C@@H](O)[C@]1(C)O [azithromycin]	no significant change in MIC50	0.04	0.016	0.032 (≈ 0.0427 µM)	marked insensitivity		
CO[C@H]1/C=C/O[C@@]2(C)Oc3c(C)c(O)c4c(O)c(c(/C=N/N5CCN(C)CC5)c(O)c4c3C2=O)NC(=O)/C(C)=C\C=C\[C@H](C)[C@H](O)[C@@H](C)[C@@H](O)[C@@H](C)[C@H](OC(C)=O)[C@@H]1C [rifampin]	no significant change in MIC50	0.005		0.008 (≈ 0.00972 µM)	marked insensitivity	> 0.08	0.002
